From patent US8609836B2, “4-aryl-2-anilino-pyrimidines” (Janssen Pharmaceutica NV, priority 2008, dated 2013)

What was measured:
Type in all cases: biochemical
PLK4 (h) = PLK4 (h) (Homo sapiens, UniProt O00444); experiment: PLK-4 human kinase inhibition, scintillation proximity assay (SPA); conditions: read-out: PLK4 pIC50 (converted)
GSK3β (h) = GSK3β (h) (Homo sapiens, UniProt P49841); experiment: GSK-3β human kinase inhibition, SPA; conditions: read-out: GSK3b pIC50 (converted)
How it was run: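 Radiometric: 33P-labelled peptide captured on streptavidin SPA beads after EDTA stop and imaged on Leadseeker. Reaction ran 1 h at RT, 1 μM cold ATP with 2 nM [γ-33P]ATP, 1 μM biotin-peptide substrate, human GSK3β 1 μg/ml, pH 7.4 Tris buffer.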

PLK1 T210D (h) = PLK1 T210D (h) (Homo sapiens, UniProt P53350, T210D); experiment: PLK1 human kinase inhibition, SPA; conditions: read-out: PLK1 pIC50 (converted)
Chain of PLK1 T210D (h) (P53350 whole entry T210D): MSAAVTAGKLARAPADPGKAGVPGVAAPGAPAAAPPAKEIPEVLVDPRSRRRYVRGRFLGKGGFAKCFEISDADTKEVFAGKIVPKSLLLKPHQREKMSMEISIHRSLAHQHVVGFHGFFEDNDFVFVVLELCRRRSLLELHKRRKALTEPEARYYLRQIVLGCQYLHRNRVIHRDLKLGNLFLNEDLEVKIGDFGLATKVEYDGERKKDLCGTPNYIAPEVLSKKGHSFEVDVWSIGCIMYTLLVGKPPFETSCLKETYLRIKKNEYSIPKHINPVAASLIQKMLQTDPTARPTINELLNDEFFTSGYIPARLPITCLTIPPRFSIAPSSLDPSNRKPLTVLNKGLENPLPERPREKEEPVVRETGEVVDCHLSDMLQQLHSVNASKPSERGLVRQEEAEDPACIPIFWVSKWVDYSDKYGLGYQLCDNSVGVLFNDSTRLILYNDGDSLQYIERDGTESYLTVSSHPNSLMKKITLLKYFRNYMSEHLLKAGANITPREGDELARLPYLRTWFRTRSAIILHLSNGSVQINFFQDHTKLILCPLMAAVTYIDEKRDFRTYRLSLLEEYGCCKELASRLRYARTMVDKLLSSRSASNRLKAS
How it was run: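 Kinase incubated 40 min at room temperature with 0.1 μM ATP (2 nM [γ-33P]ATP tracer), 2 μM biotinylated peptide, pH 8.0 Hepes buffer with 2 mM MnCl2 and 1 mM DTT; enzyme at 0.125 ng/ml. Stopped with EDTA; 33P-peptide bound to streptavidin scintillant beads and imaged.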

Chain of GSK3β (h) (P49841 whole entry): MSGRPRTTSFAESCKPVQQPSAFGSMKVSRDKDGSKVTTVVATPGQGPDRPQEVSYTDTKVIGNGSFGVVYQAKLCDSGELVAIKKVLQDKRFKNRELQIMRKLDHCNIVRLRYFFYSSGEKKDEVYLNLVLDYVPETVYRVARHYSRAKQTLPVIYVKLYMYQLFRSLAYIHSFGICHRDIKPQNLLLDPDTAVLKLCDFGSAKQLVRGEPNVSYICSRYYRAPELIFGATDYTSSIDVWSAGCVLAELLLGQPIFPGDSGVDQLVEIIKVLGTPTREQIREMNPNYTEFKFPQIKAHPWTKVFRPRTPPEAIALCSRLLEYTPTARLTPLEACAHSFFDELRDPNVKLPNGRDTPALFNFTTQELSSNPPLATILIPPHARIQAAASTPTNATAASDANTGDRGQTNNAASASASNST
Chain of PLK4 (h) (O00444 whole entry): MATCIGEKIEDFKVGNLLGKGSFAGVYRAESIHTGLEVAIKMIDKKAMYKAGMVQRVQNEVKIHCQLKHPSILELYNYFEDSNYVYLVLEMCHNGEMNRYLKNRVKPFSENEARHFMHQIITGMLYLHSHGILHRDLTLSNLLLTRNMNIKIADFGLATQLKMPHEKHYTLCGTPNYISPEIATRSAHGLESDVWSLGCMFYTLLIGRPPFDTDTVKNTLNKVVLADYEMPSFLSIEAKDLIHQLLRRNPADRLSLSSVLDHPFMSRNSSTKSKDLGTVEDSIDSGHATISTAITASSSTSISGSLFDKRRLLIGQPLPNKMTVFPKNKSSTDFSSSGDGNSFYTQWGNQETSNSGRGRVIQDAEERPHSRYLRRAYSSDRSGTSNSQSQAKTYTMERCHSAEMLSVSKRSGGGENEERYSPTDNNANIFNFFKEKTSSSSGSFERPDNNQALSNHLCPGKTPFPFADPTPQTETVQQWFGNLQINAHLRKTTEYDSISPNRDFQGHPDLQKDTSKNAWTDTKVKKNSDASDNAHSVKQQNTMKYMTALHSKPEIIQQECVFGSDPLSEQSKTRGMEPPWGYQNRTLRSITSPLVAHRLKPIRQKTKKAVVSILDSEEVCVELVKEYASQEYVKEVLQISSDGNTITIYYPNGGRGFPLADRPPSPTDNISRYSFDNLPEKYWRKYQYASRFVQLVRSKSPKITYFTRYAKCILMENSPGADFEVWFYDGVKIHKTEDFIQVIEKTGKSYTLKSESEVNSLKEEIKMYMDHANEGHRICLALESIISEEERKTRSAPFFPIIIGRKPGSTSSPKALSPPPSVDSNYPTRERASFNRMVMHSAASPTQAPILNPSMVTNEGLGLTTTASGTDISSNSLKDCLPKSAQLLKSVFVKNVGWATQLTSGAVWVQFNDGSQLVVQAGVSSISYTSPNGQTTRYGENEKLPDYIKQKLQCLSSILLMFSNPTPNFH

Structure (SMILES)	IC50 (PLK4 (h)) [µM]	IC50 (GSK3β (h)) [µM]	IC50 (PLK1 T210D (h)) [µM]
COc1ccc2cc1CN(C)CCNC(=O)[C@H](CO)NCc1cc(cc(N3CCOCC3)c1)Nc1nccc-2n1 [Compound 105]	0.447	> 10	> 10
COc1cc2cc(c1)Nc1nccc(n1)-c1ccc(OC)c(c1)CN(C)CCNC(=O)[C@H](CO)NC2 [Compound 107]	0.589	6.31	> 10
COc1cc2cc(c1)Nc1nccc(n1)-c1ccc(cc1)CN(C)CCNC(=O)[C@H](CO)NC2 [Compound 109]	0.741	4.79	> 10
CN1CCNC(=O)[C@H](CO)NCc2cccc(c2)Nc2nccc(n2)-c2ccc(cc2)C1 [Compound 114]	1.2	2.82	> 10
COc1ccc2cc1CN(C)CCCNC(=O)[C@H](CO)NCc1cccc(c1)Nc1nccc-2n1 [Compound 118]	3.24	> 10	> 10
COc1ccc2cc1CN(C)CCNC(=O)[C@H](CO)NCc1cc(Br)cc(c1)Nc1nccc-2n1 [Compound 119]	3.89	6.03	> 10
O=C1NCc2cccc(c2)-c2ccnc(n2)Nc2cccc(c2)CN2CCC1CC2 [Compound 124]	8.71	0.457	> 10
COc1cc2cc(c1)Nc1nccc(n1)-c1ccc(OC)c(c1)CN(C)CCNC(=O)CN1CCN(CC1)C2 [Compound 127]	0.813	5.01	> 10
CC(C)Nc1cc2cc(c1)Nc1nccc(n1)-c1ccc(cc1)CN(C)CCCNC(=O)CN1CCN(CC1)C2 [Compound 131]	1.26	4.37	> 10
COc1cc2cc(c1)Nc1nccc(n1)-c1ccc(cc1)CN(C)CCNC(=O)CN1CCN(CC1)C2 [Compound 132]	1.41	2	> 10
CN1CCNC(=O)CN2CCN(CC2)Cc2cccc(c2)Nc2nccc(n2)-c2ccc(cc2)C1 [Compound 134]	1.62	1.32	> 10
COc1ccc2cc1CN(C)CCNC(=O)CN1CCN(CC1)Cc1cc(NCCc3ccccc3)cc(c1)Nc1nccc-2n1 [Compound 138]	2.14	> 10	> 10
COc1cc2cc(c1)Nc1nccc(n1)-c1ccc(OC)c(c1)CN(C)CCCNC(=O)CN1CCN(CC1)C2 [Compound 140]	2.69	7.41	> 10
O=C1NCc2cc(ccc2N2CCOCC2)Nc2nccc(n2)-c2cccc(c2)CCCN2CCC[C@@H]12 [Compound 149]	0.813	0.117	> 10
CC(C)Nc1cc2cc(c1)Nc1nccc(n1)-c1ccc(cc1)CN(C)CCCNC(=O)[C@@H]1CCCN1C2 [Compound 151]	0.646	> 10	> 10
COc1ccc2cc1CN(C)CCNC(=O)[C@@H]1CCCN1Cc1cc(cc(N3CCOCC3)c1)Nc1nccc-2n1 [Compound 152]	0.692	5.13	> 10
CN1CCNC(=O)[C@@H]2CCCN2Cc2cc(cc(N3CCOCC3)c2)Nc2nccc(n2)-c2ccc(cc2)C1 [Compound 154]	0.813	> 10	> 10
COc1cc2cc(c1)Nc1nccc(n1)-c1ccc(cc1)CN(C)CCCNC(=O)[C@@H]1CCCN1C2 [Compound 156]	0.912	> 10	> 10
O=C1NCCNCc2ccc(cc2)-c2ccnc(n2)Nc2ccc(N3CCOCC3)c(c2)CN2CCC[C@@H]12 [Compound 157]	1.07	6.61	> 10
COc1cc2cc(c1)Nc1nccc(n1)-c1ccc(cc1)CN(C)CCNC(=O)[C@@H]1CCCN1C2 [Compound 158]	1.15	> 10	> 10
CN1CCNC(=O)[C@@H]2CCCN2Cc2cccc(c2)Nc2nccc(n2)-c2ccc(cc2)C1 [Compound 160]	1.55	5.5	> 10

Structure (SMILES)	IC50 (PLK4 (h)) [µM]	IC50 (GSK3β (h)) [µM]	IC50 (PLK1 T210D (h)) [µM]
COc1cc2cc(c1)Nc1nccc(n1)-c1ccc(OC)c(c1)CN(C)CCNC(=O)[C@@H]1CCCN1C2 [Compound 162]	2.04	8.32	> 10
COc1ccc2cc1CN(C)CCNC(=O)[C@@H]1CCCN1Cc1cc(NCCc3ccccc3)cc(c1)Nc1nccc-2n1 [Compound 163]	2.45	> 10	> 10
COc1ccc2cc1CN(C)CCNC(=O)[C@@H]1CCCN1Cc1cc(cc(NC(C)C)c1)Nc1nccc-2n1 [Compound 165]	2.82	> 10	> 10
COc1ccc2cc1CN(C)CCCNC(=O)[C@@H]1CCCN1Cc1cc(NCCc3ccccc3)cc(c1)Nc1nccc-2n1 [Compound 167]	3.55	> 10	> 10
CN1CCN(C)c2ccc(cn2)-c2ccnc(n2)Nc2cc(c3c(c2)OCO3)CN2CCC[C@H]2C1=O [Compound 168]	3.55	1.45	> 10
COc1cc2cc(c1)Nc1nccc(n1)-c1ccc(OC)c(c1)CN(C)CCCNC(=O)[C@@H]1CCCN1C2 [Compound 171]	5.01	> 10	> 10
COc1ccc2cc1CN(C)CCNC(=O)[C@@H]1CCCN1Cc1cc(C#N)cc(c1)Nc1nccc-2n1 [Compound 181]	> 10	> 10	> 10
C[C@@H]1NCc2cc(ccc2N2CCOCC2)Nc2nccc(n2)-c2cccc(c2)CNC1=O [Compound 182]	0.692	0.661	> 10
C[C@@H]1NCc2cccc(c2)Nc2nccc(n2)-c2cccc(c2)CNC1=O [Compound 184]	0.776	0.102	> 10
O=C1NCc2cccc(c2)-c2ccnc(n2)Nc2cccc(c2)CN[C@H]1Cc1ccccc1 [Compound 185]	0.794	0.0275	> 10
C[C@@H]1NCc2ccc(Cl)c(c2)Nc2nccc(n2)-c2cccc(c2)CNC1=O [Compound 186]	1.02	> 10	> 10
O=C1NCc2cccc(c2)-c2ccnc(n2)Nc2cccc(c2)CN[C@H]1CO [Compound 187]	1.07	0.0537	> 10
O=C1NCc2cccc(c2)-c2ccnc(n2)Nc2cc(ccc2Cl)CN[C@H]1CO [Compound 188]	2.09	6.61	> 10
O=C1NCc2cccc(c2)-c2ccnc(n2)Nc2cc(ccc2Cl)CN[C@H]1Cc1ccccc1 [Compound 189]	> 10	6.92	> 10
C[C@@H]1NCc2ccc(cc2)Nc2nccc(n2)-c2cccc(c2)CNC1=O [Compound 190]	> 10	1.29	> 10
O=C1NCc2cccc(c2)-c2ccnc(n2)Nc2ccc(cc2)CN[C@H]1Cc1ccccc1 [Compound 192]	> 10	> 10	> 10
O=C1CN2CCN(CC2)Cc2ccc(cc2)Nc2nccc(n2)-c2cccc(c2)CN1 [Compound 193]	> 10	3.24	> 10
O=C1CN2CCN(CC2)Cc2cc(ccc2N2CCOCC2)Nc2nccc(n2)-c2ccc(cc2)CN1 [Compound 194]	1.12	6.03	> 10
O=C1CN2CCN(CC2)Cc2ccc(Cl)c(c2)Nc2nccc(n2)-c2cccc(c2)CN1 [Compound 195]	> 10	> 10	> 10
O=C1CN2CCN(CC2)Cc2cccc(c2)Nc2nccc(n2)-c2cccc(c2)CN1 [Compound 196]	> 10	1.07	> 10
